Results: the NIST ThermoML archive (doi:10.1016/j.fluid.2010.03.040)
Numbers after ± are expanded uncertainties.

Details: Capillary rise

CCOC(=O)CCCCC(=O)OCC [diethyl hexanedioate]
Details | surface tension liquid-gas [mN/m]
293.16 K | 32.7 ± 0.4
298.09 K | 32.2 ± 0.4
303.17 K | 31.6 ± 0.4
308.11 K | 31 ± 0.4
313.18 K | 30.3 ± 0.4
318.15 K | 29.7 ± 0.4
323.17 K | 29.2 ± 0.4
328.12 K | 28.7 ± 0.4
333.16 K | 28.3 ± 0.4
338.16 K | 27.7 ± 0.4
343.15 K | 27.2 ± 0.4
348.13 K | 26.6 ± 0.4
353.16 K | 26.2 ± 0.4
358.13 K | 25.8 ± 0.4
363.13 K | 25.3 ± 0.4
368.15 K | 24.8 ± 0.4
373.14 K | 24.3 ± 0.4

CCOC(=O)OCC [diethyl carbonate]
Details | surface tension liquid-gas [mN/m]
273.18 K | 29.15 ± 0.41
278.18 K | 28.63 ± 0.41
283.18 K | 28.07 ± 0.41
288.18 K | 27.48 ± 0.41
293.16 K | 26.81 ± 0.41
298.1 K | 26.26 ± 0.41
303.17 K | 25.64 ± 0.41
308.11 K | 25.14 ± 0.41
313.19 K | 24.48 ± 0.41
318.16 K | 24.03 ± 0.41
323.16 K | 23.47 ± 0.41
328.12 K | 22.98 ± 0.41
333.18 K | 22.35 ± 0.41
338.17 K | 21.81 ± 0.41
343.17 K | 21.23 ± 0.4
348.17 K | 20.69 ± 0.4
353.19 K | 20.16 ± 0.4
358.18 K | 19.64 ± 0.4
363.16 K | 19.13 ± 0.4
368.18 K | 18.69 ± 0.4
373.17 K | 18.01 ± 0.4

COCCOC [1,2-dimethoxyethane]
Details | surface tension liquid-gas [mN/m]
278.17 K | 26.52 ± 0.41
283.17 K | 25.97 ± 0.41
288.18 K | 25.28 ± 0.41
293.17 K | 24.67 ± 0.4
298.03 K | 23.94 ± 0.4
303.15 K | 23.42 ± 0.4
308.12 K | 22.84 ± 0.4
313.16 K | 22.25 ± 0.4
318.17 K | 21.56 ± 0.4
323.18 K | 21.02 ± 0.4
328.17 K | 20.41 ± 0.4
333.17 K | 19.83 ± 0.4
338.17 K | 19.29 ± 0.4
343.17 K | 18.74 ± 0.4
348.17 K | 18.12 ± 0.4
353.18 K | 17.59 ± 0.4
358.17 K | 16.91 ± 0.4
363.17 K | 16.35 ± 0.4
368.17 K | 15.74 ± 0.4
373.17 K | 15.23 ± 0.4
